Laboratory results reported in patent publication US11427548B2 (Arvinas Operations, Inc., priority 2015, dated 2022).
Read-outs that look alike come from different tables or passages of the source.

Biological target: T1, Androgen Receptor (Homo sapiens, UniProt P10275)
T1 construct: endogenous in cells; host or cells: VCaP cells
T1 sequence (P10275 1-920): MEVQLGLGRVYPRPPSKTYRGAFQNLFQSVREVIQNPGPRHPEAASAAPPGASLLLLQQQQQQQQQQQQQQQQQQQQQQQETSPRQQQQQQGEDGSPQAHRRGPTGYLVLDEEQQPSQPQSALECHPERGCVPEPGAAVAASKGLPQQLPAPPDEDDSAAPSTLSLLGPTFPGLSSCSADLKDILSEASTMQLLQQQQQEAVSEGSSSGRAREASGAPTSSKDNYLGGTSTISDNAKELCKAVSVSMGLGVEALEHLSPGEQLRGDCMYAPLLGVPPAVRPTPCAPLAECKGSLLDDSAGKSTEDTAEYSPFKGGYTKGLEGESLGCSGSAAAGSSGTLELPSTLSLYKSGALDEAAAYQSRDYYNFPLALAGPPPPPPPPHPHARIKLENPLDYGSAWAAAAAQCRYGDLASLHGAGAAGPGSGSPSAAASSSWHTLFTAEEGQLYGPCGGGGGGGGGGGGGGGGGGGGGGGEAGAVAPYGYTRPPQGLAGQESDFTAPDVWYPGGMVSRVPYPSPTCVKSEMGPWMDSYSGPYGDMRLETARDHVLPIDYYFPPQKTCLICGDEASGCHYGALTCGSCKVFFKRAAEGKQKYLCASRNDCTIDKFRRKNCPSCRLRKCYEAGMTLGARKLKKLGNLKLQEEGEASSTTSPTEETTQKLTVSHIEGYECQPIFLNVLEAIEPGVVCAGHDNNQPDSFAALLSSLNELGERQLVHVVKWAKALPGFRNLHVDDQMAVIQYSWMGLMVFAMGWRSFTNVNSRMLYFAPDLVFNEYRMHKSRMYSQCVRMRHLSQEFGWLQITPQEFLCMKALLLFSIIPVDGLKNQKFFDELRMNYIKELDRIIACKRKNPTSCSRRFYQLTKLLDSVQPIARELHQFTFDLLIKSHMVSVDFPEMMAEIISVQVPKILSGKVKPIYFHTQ
Test: Androgen Receptor ELISA assay (PathScan AR ELISA) in VCaP cells: AR degradation, Dmax and DC50
Format: cell-based
Method in brief: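 VCaP cells, 30,000/well, grown ≥3 days in phenol red-free RPMI with 5% charcoal-stripped FBS; compound added in 0.1% DMSO with 0.1 nM R1881, 7 half-log doses, 24 h. Lysate AR quantified by PathScan sandwich ELISA, HRP/TMB read at 450 nm, giving DC50 and Dmax.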

[1] = read-out: VCaP DC50; concentration that caused 50% Androgen Receptor degradation, VCaP cells (Table 32)
[2] = VCaP cells; Table 35; read-out: VCaP DC50
[3] = VCaP, VCaP cells; Table 35; read-out: VCaP Dmax (%)
[4] = VCaP cells; Table 36; read-out: VCaP DC50
[5] = VCaP, VCaP cells; Table 36; read-out: VCaP Dmax (%)

With CC(C)(C)[C@H](NC(=O)COCCCCOc1ccc(-c2ccc(N3C(=S)N(c4ccc(C#N)c(Cl)c4)C(=O)C3(C)C)cc2)c(F)c1)C(=O)N1C[C@H](O)C[C@H]1C(=O)NCc1ccc(-c2cnco2)cc1 [Example 121, (2S,4R)-1-[(2S)-2-{2-[4-(4-{4-[3-(3-chloro-4-cyanophenyl)-5,5-dimethyl-4-oxo-2-sulfanylideneimidazolidin-1-yl]phenyl}-3-fluorophenoxy)butoxy]acetamido}-3,3-dimethylbutanoyl]-4-hydroxy-N-{[4-(1,3-oxazol-5-yl)phenyl]methyl}pyrrolidine-2-carboxamide] the Dmax (VCaP, read-out: VCaP Dmax (%)) was over 71% and the DC50 [1] was under 50 nM.

Cc1ncsc1-c1ccc(CNC(=O)[C@@H]2C[C@@H](O)CN2C(=O)[C@H](C(C)C)N2CC(OCCCOCCCOc3ccc(N4C(=S)N(c5ccc(C#N)c(C(F)(F)F)c5)C(=O)C4(C)C)cc3)=CC2=O)cc1 [Example 329] gave a Dmax (VCaP, read-out: VCaP Dmax (%)) of 26 to 50% and a DC50 (read-out: VCaP DC50; VCaP cells; Table 34) of under 50 nM.

With Cc1ncoc1-c1ccc([C@H](C)NC(=O)[C@@H]2C[C@@H](O)CN2C(=O)[C@@H](NC(=O)COCCCCNc2ccc(-c3ccc(N4C(=S)N(c5cnc(C#N)c(C(F)(F)F)c5)C(=O)C4(C)C)cc3)cc2)C(C)(C)C)cc1 [Example 390] the DC50 (VCaP cells; Table 34; read-out: VCaP DC50) was under 50 nM and the Dmax (VCaP, VCaP cells; Table 34; read-out: VCaP Dmax (%)) was 51 to 70%.

CC(C)(C)[C@H](NC(=O)COCCNc1ccc(-c2ccc(C(=O)N[C@H]3C(C)(C)[C@H](Oc4ccc(C#N)c(Cl)c4)C3(C)C)cc2)cn1)C(=O)N1C[C@H](O)C[C@H]1C(=O)NCc1ccc(C#N)cc1 [Example 540] was tested, and the DC50 [2] was under 50 nM and the Dmax [3] was over 71%.

Cc1ncsc1-c1ccc([C@H](C)NC(=O)[C@@H]2C[C@@H](O)CN2C(=O)[C@@H](NC(=O)COCCN2CCN(c3ccc(C(=O)N[C@H]4C[C@@H](Oc5ccc(C#N)c(Cl)c5)C4(C)C)cn3)CC2)C(C)(C)C)cc1 [Example 850, N-((1S,3R)-3-(3-chloro-4-cyanophenoxy)-2,2-dimethylcyclobutyl)-6-(4-(2-(2-(((S)-1-((2S, 4R)-4-hydroxy-2-(((S)-1-(4-(4-methylthiazol-5-yl)phenyl)ethyl)carbamoyl)pyrrolidin-1-yl)-3,3-dimethyl-1-oxobutan-2-yl)amino)-2-oxoethoxy)ethyl)piperazin-1-yl) nicotinamide] showed a DC50 [4] of under 50 nM and a Dmax [5] of 51 to 70%.

Work on CC(C)(C)[C@H](NC(=O)COCCCCOc1ccc(-c2ccc(N3C(=S)N(c4ccc(C#N)c(Cl)c4F)C(=O)C3(C)C)cc2)cc1)C(=O)N1C[C@H](O)C[C@H]1C(=O)NCc1ccc(-c2cnco2)cc1 [Example 123, (2S,4R)-1-[(2S)-2-{2-[4-(4-{4-[3-(3-chloro-4-cyano-2-fluorophenyl)-5,5-dimethyl-4-oxo-2-sulfanylideneimidazolidin-1-yl]phenyl}phenoxy)butoxy]acetamido}-3,3-dimethylbutanoyl]-4-hydroxy-N-{[4-(1,3-oxazol-5-yl)phenyl]methyl}pyrrolidine-2-carboxamide] yielded a Dmax (VCaP, read-out: VCaP Dmax (%)) of over 71% and a DC50 [1] of under 50 nM.

Compound Cc1ncsc1-c1ccc(CNC(=O)[C@@H]2C[C@@H](O)CN2C(=O)[C@@H](NC(=O)CN2CCN(CCCc3cn(-c4ccc(C(=O)N[C@H]5C(C)(C)[C@H](Oc6ccc(C#N)c(C(F)(F)F)c6)C5(C)C)cc4)nn3)CC2)C(C)(C)C)cc1 [Example 710, (2S,4R)-1-((S)-2-(2-(4-(3-(1-(4-(((1r,3r)-3-(4-cyano-3-(trifluoromethyl)phenoxy)-2,2,4,4-tetramethylcyclobutyl)carbamoyl)phenyl)-1H-1,2,3-triazol-4-yl)propyl)piperazin-1-yl)acetamido)-3,3-dimethylbutanoyl)-4-hydroxy-N-(4-(4-methylthiazol-5-yl)benzyl)pyrrolidine-2-carboxamide] has a DC50 [4] of under 50 nM and a Dmax (VCaP, read-out: VCaP Dmax (%)) of 51 to 70%.

With CC(C)[C@@H](C(=O)N1C[C@H](O)C[C@H]1C(=O)NCc1ccc(Cl)cc1)N1Cc2ccc(N3CCN(CCCc4ccc(C(=O)N[C@H]5C(C)(C)[C@H](Oc6ccc(C#N)c(C(F)(F)F)c6)C5(C)C)cc4)CC3)cc2C1=O [Example 770, (2S,4R)-N-(4-chlorobenzyl)-1-((S)-2-(6-(4-(3-(4-(((1r,3r)-3-(4-cyano-3-(trifluoromethyl)phenoxy)-2,2,4,4-tetramethylcylcobutyl)carbamoyl)phenyl)propyl)piperazin-1-yl)-1-oxoisoindolin-2-yl)-3-methylbutanoyl)-4-hydroxypyrrolidine-2-carboxamide] the DC50 [4] was over 501 nM and the Dmax [5] was under 25%.

CC(C)(C)[C@H](NC(=O)COCCCCCNc1ccc(C(=O)N[C@H]2C(C)(C)[C@H](Oc3ccc(C#N)c(Cl)c3)C2(C)C)cc1)C(=O)N1C[C@H](O)C[C@H]1C(=O)NCc1ccc(-c2cccnn2)cc1 [Example 531] was tested, and the DC50 [2] was under 50 nM and the Dmax [3] was 26 to 50%.

For Cc1ncsc1-c1ccc([C@H](C)NC(=O)[C@@H]2C[C@@H](O)CN2C(=O)[C@@H](NC(=O)CN2CCOCCN(CCOc3ccc(N4C(=S)N(c5ccc(C#N)c(C(F)(F)F)c5)C(=O)C4(C)C)cc3)CCOCC2)C(C)(C)C)cc1 [Example 643, (2S,4R)-1-((S)-2-(2-(10-(2-(4-(3-(4-cyano-3-(trifluoromethyl)phenyl)-5,5-dimethyl-4-oxo-2-thioxoimidazolidin-1-yl)phenoxy)ethyl)-1,7-dioxa-4,10-diazacyclododecan-4-yl)acetamido)-3,3-dimethylbutanoyl)-4-hydroxy-N-((S)-1-(4-(4-methylthiazol-5-yl)phenyl)ethyl)pyrrolidine-2-carboxamide], the Dmax (VCaP, read-out: VCaP Dmax (%)) was under 25% and the DC50 (read-out: VCaP DC50; VCaP cells; Table 36) was over 501 nM.

Cc1ncsc1-c1ccc(CNC(=O)[C@@H]2C[C@@H](O)CN2C(=O)[C@@H](NC(=O)COC[C@H](O)[C@@H](O)COc2ccc(C(=O)N[C@H]3C(C)(C)[C@H](Oc4ccc(C#N)c(Cl)c4)C3(C)C)cc2)C(C)(C)C)cc1 [Example 577] was tested, and the DC50 [2] was under 50 nM and the Dmax [3] was over 71%.

Cc1ncsc1-c1ccc([C@H](C)NC(=O)[C@@H]2C[C@@H](O)CN2C(=O)[C@@H](NC(=O)CC2(CN3CCN(c4ccc(C(=O)N[C@H]5C(C)(C)[C@H](Oc6ccc(C#N)c(Cl)c6)C5(C)C)cn4)CC3)COC2)C(C)(C)C)cc1 [Example 851, N-((1r,3r)-3-(3-chloro-4-cyanophenoxy)-2,2,4,4-tetramethylcyclobutyl)-6-(4-((3-(2-(((S)-1-((2S,4R)-4-hydroxy-2-(((S)-1-(4-(4-methylthiazol-5-yl)phenyl)ethyl)carbamoyl)pyrrolidin-1-yl)-3,3-dimethyl-1-oxobutan-2-yl)amino)-2-oxoethyl)oxetan-3-yl)methyl)piperazin-1-yl)nicotinamide] was tested, and the DC50 [4] was under 50 nM and the Dmax [5] was 26 to 50%.

With Cc1ncsc1-c1ccc([C@H](C)NC(=O)C2C[C@@H](O)CN2C(=O)C(c2cc(OCCN(C)[C@H](C(=O)NC(C(=O)N3CCN(c4ccc(C(=O)NC5C(C)(C)C(Oc6ccc(C#N)c(Cl)c6)C5(C)C)cc4)CC3)C(C)C)C(C)C)no2)C(C)C)cc1 (stereo partly drawn) [Example 810, (2S,4R)-1-(2-(3-(2-(((S)-1-(((S)-1-(4-(4-(((1r,3S)-3-(3-chloro-4-cyanophenoxy)-2,2,4,4-tetramethylcyclobutyl)carbamoyl)phenyl)piperazin-1-yl)-3-methyl-1-oxobutan-2-yl)amino)-3-methyl-1-oxobutan-2-yl) (methyl)amino)ethoxy)isoxazol-5-yl)-3-methylbutanoyl)-4-hydroxy-N-((S)-1-(4-(4-methylthiazol-5-yl)phenyl)ethyl) pyrrolidine-2-carboxamide] the DC50 [4] was under 50 nM and the Dmax (VCaP, read-out: VCaP Dmax (%)) was over 71%.
